The values below come from US20240382510A1, “NEW COMBINATION DRUG FOR TREATING CORONAVIRUS INFECTIONS, PHARMACEUTICAL COMPOSITION AND USE THEREOF” (priority 2021, published 2024).

Where two headings read alike, the source gives them in different places.

Data set [1] concerns SARS-CoV-2 (hCoV-19/China/CAS-B001/2020). The data set can be described thus: Synergistic anti-SARS-CoV-2 activity (Example 4), CPE in Vero-E6 cells. Type of data set: cell-based. Conditions: Severe acute respiratory syndrome coronavirus 2, Vero C1008; wild strain hCoV-19/China/CAS-B001/2020, Vero-E6, CPE after 72 hours.
The conditions of data set [2]: rats.
Procedure: Among them, group 4 was converted according to the clinical administration of 3 tablets, and the remaining experimental groups were converted according to the clinical administration of 4 tablets.
A single dose was administered to healthy SD rats, and blood was taken according to the blood collection plan. After sample processing, analysis, and data processing, the plasma concentration-time curves of each group were drawn respectively. The pharmacokinetic parameters of each group of medicines in rats was calculate by WinNonlin 6.1 software.
Another data set can be described thus: in vivo. It is filed as in vitro ADME. As to conditions: plasma. The text has this: In addition, due to the high plasma protein binding rate of atovaquone and nitazoxanide, both about 99% (refer to Beerahee M Clinical pharmacology of atovaquone and proguanil hydrochloride. [J]. Journal of Travel Medicine, 1999, 6 suppl 1:S13-7.; Alinia™ PRESCRIBING INFORMATION-FDA.). The present application also studied and compared the in vivo plasma protein binding rate of atovaquone and nitazoxanide combined administration and separate administration. […] Compared with alone administration, combined administration will not affect the distribution and elimination of the two drugs in vivo, and competition for plasma protein binding site by one drug will not result in an increase in the free form of another drug.

The conditions of data set [3]: literature (Beerahee 1999; Alinia prescribing information); cited from earlier work.
The conditions of data set [4]: literature values; cited from earlier work.
A further data set concerns SARS-CoV-2. Conditions: anti-SARS-CoV-2, literature values; cited from earlier work.
The mark [5] stands for this setting: atovaquone combined with nitazoxanide, read-out: average plasma protein binding rate, combined administration group (converted).
[6] abbreviates: separate administration, read-out: average plasma protein binding rate, separate administration group (converted).

What is called EC50 is the concentration that produces a half-maximal response.

For `O=C1C(O)=C([C@H]2CC[C@H](c3ccc(Cl)cc3)CC2)C(=O)c2ccccc21` [ATQ, 2-(trans-4-(4-chlorophenyl)cyclohexyl)-3-hydroxy-1,4-naphthalenedione], the EC50 in data set [1] stood at 2040 nM. In addition, in data set [2] (single dose), the “exposure level (AUC0-24h) administered alone compared with combination at the same dose” value is listed as “similar”; the “plasma concentration trend at 16-24 hours, administered alone” value is “downward trend”; the “plasma concentration trend at 16-24 hours, combined administration” value is given as “flat or rising trend”. For the same compound, the fraction unbound in “in vivo” (setting [5]) is 0.0014. In addition, the fraction unbound in the data set “in vivo” (setting [6]) is 0.0016. Further, the “plasma protein binding rate” value in data set [3] was “about 99%”.

Take `CC(C)C(=O)OC[C@H]1O[C@@H](n2ccc(NO)nc2=O)[C@H](O)[C@@H]1O` [Molnupiravir]: the Plasma concentration in data set [4] is 2090 nM. Besides, the EC50 in the data set on SARS-CoV-2 was 320 to 2030 nM.

In the case of `CC(=O)Oc1ccccc1C(=O)Nc1ncc([N+](=O)[O-])s1` [NTZ, o-[N-(5-nitro-1,3-thiazol-2-yl)carbamoyl]phenol acetate], the EC50 in data set [1] came to 4900 nM. Besides, the “plasma concentration administered alone vs in combination at the same dose” value in data set [2] (single dose 46.6 mg/kg, group 1 vs group 5) is listed as “no obvious difference”. Besides, the fraction unbound was 0.0016 in “in vivo” (setting [5]) and 0.0105 in the data set “in vivo” (setting [6]). The “plasma protein binding rate” value in data set [3] was “about 99%”.

With `NC(=O)c1ncn([C@@H]2O[C@H](CO)[C@@H](O)[C@H]2O)n1` [RBV, 1-[(2R,3R,4S,5R)-3,4-dihydroxy-5-(hydroxymethyl)Oxolane-2-yl]-1H-1,2,4-triazole-3-carboxamide], the “plasma concentration administered alone vs in combination, within 0.5-4 hours after administration” value in data set [2] (13.9 mg/kg, group 3 vs group 5 and group 4) is listed as “greater”. In data set [2] (single dose), the “exposure level (AUC0-24h) administered alone compared with combination at the same dose” value is on record as “slightly greater”.
